Measurements taken from patent US20230285347A1, “Preterm Labour with Prostaglandin E2 Receptor Agonists” (IMPERIAL COLLEGE INNOVATIONS LIMITED, priority 2020, published 2023).

Columns and labels:
[1] = molecular target: T1, human FLAG-EP2 (Homo sapiens, UniProt P43116); experiment: Intracellular Ca2+ release in HEK 293 cells stably expressing EP2 (Fluo-4, confocal; Gαq/11 readout); assay type: cell-based; conditions: HEK 293 EP2 cells; butaprost 10 μM, AH13205 10 μM, PGN9856i 100 nM; vs vehicle; FIG. 3
T1 construct: FLAG; expressed in transfected cells
Protocol: To measure Gαq/11 activation, HEK 293 cells stably expressing human FLAG-EP2 were pre-labelled with a Ca2+ indicator dye and acutely stimulated with each ligand.
HEK 293 cells, prepared following the same methodology as outlined in Example 1, were seeded onto Mattek dishes with 14 mm by 1.5 mm glass coverslips. Cells were incubated with Fluo-4am Ca2+ indicator (ThermoFisher) as per manufacturer's instructions. […]. Time-series images were acquired using a Leica SP5 confocal microscope, Leica LAS AF image acquisition software and a 488 nm excitation laser. HEK cells were imaged using a 10× dry objective. EP2 agonists (butaprost 10 μM, AH13205 10 μM or PGN9856i 100 nM) were added following measurement of basal fluorescence. Raw files were analysed using Fiji Time series analyser plugin to find the maximal fluorescent intensity, which was then averaged across cells in each condition.
The maximal fluorescence intensity was measured by live confocal microscopy.

[2] = molecular target: T2, EP2 (Homo sapiens, UniProt P43116); experiment: cAMP in non-labouring myometrial cells with/without oxytocin pre-treatment; assay type: cell-based; conditions: OT pre-treatment 1 hour, 100 nM; butaprost 10 μM, AH13205 10 μM, PGN9856i 100 nM; FIG. 10
T2 construct: primary human myocytes cultured from term pregnant, non-labouring, myometrium; endogenous in cells; host or cells: primary human myometrial cells (myocytes) cultured from pregnant myometrium
Protocol: Myometrial cells with/without oxytocin (OT) pre-treatment (1 hour, 100 nM) were treated with IBMX (5 minutes, 0.5 mM) before 1 minute stimulation with IBMX with/without either DMSO, butaprost (10 μM), AH13205 (10 μM) or PGN9856i (100 nM). cAMP concentrations were normalised to protein. Each patient's data normalised to butaprost response and shown as mean±SEM, n=6. One-sample t-test: #p<0.05. ##p<0.01. One-way ANOVA with Sidak's multiple comparison post-hoc test: **p<0.01.
(§1) Confluent myometrial cells were treated with/without OT (100 nM) for 1 hour before 3 PBS washes and the addition of […] IBMX (3-isobutyl-1-methylxanthine) in PBS for 5 minutes at 37° C. This was exchanged for 0.5 μM IBMX in PBS plus either DMSO, butaprost (10 μM), AH13205 (10 μM) or PGN9856i (100 nM) for […]. Cells were lysed in Cisbio cAMP lysis buffer with 0.2% TritonX-100 and centrifuged for 15 minutes at 16,000 g. Lysates were normalized to protein concentration determined by Coomassie (Bradford) Protein Assay Kit and analysed as per manufacturers' protocol (Cisbio Gαs dynamic assay) using a PHERAstar FSX.

[3] = molecular target: T1, human FLAG-EP2; experiment: PGE2 release by ELISA in HEK 293 cells stably expressing EP2; assay type: cell-based; conditions: HEK 293 EP2 cells; 6 hours; butaprost 10 μM, AH13205 10 μM, PGN9856i 100 nM; FIG. 4
Protocol: COX-2 is an inflammatory mediator that drives PGE2 production. The inventors had previously shown EP2-dependent COX-2 release to be downstream of Ca2+ release in primary human myometrium and that 6-hour agonist treatment is necessary for increasing COX-2 levels and PGE2 secretion (Kandola et al, 2014). HEK 293 cells stably expressing human FLAG-EP2 were stimulated for 6 hours with an EP2 agonist (butaprost 10 μM, AH13205 10 μM or PGN9856i 100 nM) or DMSO. 1 mL media was collected from COX-2 experiments and immediately frozen at −80 degrees Celsius. […]

[4] = molecular target: T2, EP2; experiment: Intracellular calcium in myometrial cells with/without oxytocin pre-treatment; assay type: cell-based; conditions: OT pre-treatment 1 hour, 100 nM; butaprost 10 μM, AH13205 10 μM, PGN9856i 100 nM; FIG. 11
Protocol: Intracellular calcium response in myometrial cells with/without OT pre-treatment (1 hour, 100 nM) stimulated with butaprost (10 μM), AH13205 (10 μM) or PGN9856i (100 nM). Data are the mean of the maximum fluorescence intensity for each cell measured normalised to background (F-FO). Shown as fold-change over butaprost response. One-way ANOVA with Dunnett's multiple comparison post-hoc test: ##p<0.01. One-sample t-test: *p<0.05.

[5] = molecular target: T3, human FLAG-tagged EP2 (Homo sapiens, UniProt P43116); experiment: cAMP induction in HEK 293 cells stably expressing EP2 (Gαs readout); assay type: cell-based; conditions: HEK 293 EP2 cells; 5 minutes of stimulation; no significant difference between ligands; FIG. 2
T3 construct: FLAG; expressed in transfected cells
Protocol: EP2 is a dually coupled GPCR capable of activating downstream signalling pathways via Gαs (anti-labour inducing) and Gαq/11 (pro-labour inducing).
HEK 293 cells were maintained in DMEM (Dulbecco's Modified Eagle Medium) containing 10% fetal bovine serum and 100 μ/ml penicillin-streptomycin, and cultured in 75 cm flasks at 37° C. in 95% air and 5% CO2. Cells at 95% confluency were passaged using 0.25% trypsin with 0.02% EDTA in phosphate-buffered saline (PBS).
as §1

[6] = molecular target: T2, EP2; experiment: Intracellular cAMP in primary human myocytes from term pregnant non-labouring myometrium; assay type: cell-based; conditions: butaprost 10 μM, AH13205 10 μM, PGN9856i 100 nM, FIG. 5
Protocol: In the myometrium EP2 is an important regulator of parturition. To assess if PGN9856i, butaprost and AH13205 induce similar second messenger profiles in the myometrium as HEK 293 cells, primary human myocytes cultured from term pregnant, non-labouring, myometrium, were treated with each ligand and intracellular cAMP, calcium and PGE2 release was measured.
Myometrial tissue was acquired at St. Mary's hospital, Queen Charlotte and Chelsea hospital and Charing Cross hospital, London. Tissue was obtained from women provided with informed written consent with the approval from the Riverside Research Ethics Committee (RREC 3357, 1997-5089, 19/LO/1657) and experiments were carried out under the committee's guidelines and recommendations. Tissues were obtained from term (38+0-40 weeks gestation) pregnant women undergoing elective caesarean from the upper margin of the incision made at the lower segment of the uterus, before or after the onset of labor. Tissues taken from women in early labour (<3 cm cervical dilation) or late labour (>3 cm cervical dilation) with/without induction with syntocinon, an oxytocin analogue. Tissue was only taken from uncomplicated, singleton pregnancies.
Tissue was stored at 4° C. in phosphate buffered saline until fine dissection with scalpels and dissociation at 37° C. for 1 hour in a sterile-filtered mix of Dulbecco's modified Eagle's medium (DMEM) (Sigma Aldrich)/Ham's F-12 Nutrient Mixture (Sigma Aldrich) and serum-free DMEM (Sigma Aldrich) (1:1 v/v) containing collagenase 1A (Sigma Aldrich)(1 mg/ml), collagenase X (Sigma Aldrich)(1 mg/ml) and bovine serum albumin (Sigma Aldrich) (2 mg/ml). […]
Confluent myometrial cells were treated with/without OT (100 nM) for 1 hour before 3 PBS washes and the addition of […] IBMX (3-isobutyl-1-methylxanthine) in PBS for 5 minutes at 37° C. […] Lysates were normalized to protein concentration determined by Coomassie (Bradford) Protein Assay Kit and analysed as per manufacturers' protocol (Cisbio Gαs dynamic assay) using a PHERAstar FSX.

[7] = test system: β-adrenergic receptor; experiment: cAMP signalling in myometrial cells from different labouring groups, β-adrenergic agonist; assay type: cell-based, human; conditions: isoproterenol 10 μM; all labouring groups; FIG. 8
Protocol: Myometrial cells from different labouring groups were treated with IBMX (5 minutes, 0.5 mM) before 1 minute stimulation with IBMX with/without butaprost (10 μM) or isoproterenol (10 μM). cAMP concentrations were normalised to protein. Data shown as mean±SEM, L−n=4. All other groups n=5. Each treatment compared to L− using one-way ANOVA with Dunnett's multiple comparison post-hoc test: **p<0.01, ***p<0.001, ****p<0.0001.

T2 sequence (P43116 whole entry): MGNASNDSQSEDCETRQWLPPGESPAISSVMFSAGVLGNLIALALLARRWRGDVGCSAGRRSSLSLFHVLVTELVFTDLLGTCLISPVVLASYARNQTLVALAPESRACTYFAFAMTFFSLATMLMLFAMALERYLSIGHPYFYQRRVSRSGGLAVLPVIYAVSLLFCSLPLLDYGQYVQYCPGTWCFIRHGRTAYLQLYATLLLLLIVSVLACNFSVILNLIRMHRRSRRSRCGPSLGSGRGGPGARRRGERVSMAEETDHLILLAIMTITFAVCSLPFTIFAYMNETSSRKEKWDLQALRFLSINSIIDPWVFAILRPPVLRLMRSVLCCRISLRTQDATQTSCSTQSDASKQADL
T1 sequence (P43116 whole entry): as above
T3 sequence (P43116 whole entry): as above

Compound | intracellular Ca2+ release (maximal fluorescence intensity) [1] | effect of OTR activation on ligand's ability to increase intracellular cAMP [2] | PGE2 levels [3] | calcium response with OT pre-treatment [4] | cAMP efficacy at the maximal dose of each ligand [5] | release of intracellular cAMP [6] | agonist-induced cAMP signalling in labouring groups vs non-labouring [7]
CCCCCC(O)c1ccc(C2CCC(=O)C2CCCCCCC(=O)O)cc1 (stereo not shown) [AH13205] | enhanced Ca2+ significantly above vehicle | significantly reduced | efficacious activators of the pathway | significantly enhance the calcium response | equally efficacious | able to elicit release of intracellular cAMP | 
CC(C)NCC(O)c1ccc(O)c(O)c1 (stereo not shown) [isoproterenol] |  |  |  |  |  |  | but not isoproterenol-induced cAMP signalling, was significantly attenuated
